Experimental data: patent US5462848A, “Color photographic materials including magenta coupler, inhibitor-releasing coupler and carbonamide compound, and methods” (Eastman Kodak Company, priority 1993, dated 1995)

Assay: Potentiometric titration of dispersion pKa of couplers as aqueous dispersions
Format: physicochemical
Conditions: 0.50M potassium counter ion
Description: Preferred two-equivalent magenta dye-forming couplers for the practice of this invention include those that have pKa values of less than 10.0 when dispersed together with a coupler solvent. Potentiometric titrations were used to measure pKa values for some of the preferred couplers of the invention as aqueous dispersions. In these two-phase mixtures, the term pKa denotes the aqueous buffer pH at which half of the coupler in the oil phase is ionized or ion paired. Table I lists dispersion pKa values measured with 0.50M potassium counter ion.

[1] = coupler solvent S2, coupler:solvent 1:2, aqueous dispersion
[2] = coupler solvent C5, coupler:solvent 1:1, aqueous dispersion
[3] = coupler solvent S1, coupler:solvent 1:1, aqueous dispersion

Structure (SMILES)	pKa (0.5M K+) [1]	pKa (0.5M K+) [2]	pKa (0.5M K+) [3]	pKa (0.5M K+) (coupler solvent C1, coupler:solvent 1:2, aqueous dispersion)
CCCCCCCCCCCCNS(=O)(=O)c1ccc(NC2=NN(c3c(Cl)cc(Cl)cc3Cl)C(=O)C2Sc2cc(C(C)(C)CC(C)(C)C)ccc2OCCCC)c(Cl)c1 (stereo not drawn) [M1]	8.5			
CCCCCCCCCCCCCC(=O)Nc1ccc(Cl)c(NC2=NN(c3c(Cl)cc(Cl)cc3Cl)C(=O)C2Sc2ccccc2NC(=O)C(CC)Oc2ccc(C(C)(C)CC)cc2C(C)(C)CC)c1 (stereo not drawn) [M3]		8.2	7.9	
CCCCCCCCCCCCNS(=O)(=O)c1ccc(NC2=NN(c3c(Cl)cc(Cl)cc3Cl)C(=O)C2Sc2ccccc2NC(=O)C(CC)Oc2ccc(C(C)(C)CC)cc2C(C)(C)CC)c(Cl)c1 (stereo not drawn) [M4]		8.0	7.6	
CCCCCCCCCCCCCCCC(=O)Nc1ccc(Cl)c(NC2=NN(c3c(Cl)c(Cl)c(Cl)c(Cl)c3Cl)C(=O)C2Sc2ccccc2NC(=O)OCc2ccccc2)c1 (stereo not drawn) [M7]	7.5			
CCCCCCCCCCCCNS(=O)(=O)c1ccc(NC2=NN(c3c(Cl)cc(Cl)cc3Cl)C(=O)C2Sc2ccccc2NC(=O)CCCCCCCCCCC)c(Cl)c1 (stereo not drawn) [M8]	7.9			
CCCCCCCCCCCCCCCCCCNS(=O)(=O)c1ccc(Cl)c(NC2=NN(c3c(Cl)cc(Cl)cc3Cl)C(=O)C2Sc2cc(C(C)C)ccc2C(C)C)c1 (stereo not drawn) [M20]	8.4			8.9
